# According to PMC7994892, “The M. tuberculosis Rv1523 Methyltransferase Promotes Drug Resistance Through Methylation-Mediated Cell Wall Remodeling and Modulates Macrophages Immune Responses” (Frontiers in Cellular and Infection Microbiology, 2021):
# Molecular target: Rv1523 MTase (Mycobacterium tuberculosis, UniProt Q50584)
# Sequence (Q50584 entry or part of it): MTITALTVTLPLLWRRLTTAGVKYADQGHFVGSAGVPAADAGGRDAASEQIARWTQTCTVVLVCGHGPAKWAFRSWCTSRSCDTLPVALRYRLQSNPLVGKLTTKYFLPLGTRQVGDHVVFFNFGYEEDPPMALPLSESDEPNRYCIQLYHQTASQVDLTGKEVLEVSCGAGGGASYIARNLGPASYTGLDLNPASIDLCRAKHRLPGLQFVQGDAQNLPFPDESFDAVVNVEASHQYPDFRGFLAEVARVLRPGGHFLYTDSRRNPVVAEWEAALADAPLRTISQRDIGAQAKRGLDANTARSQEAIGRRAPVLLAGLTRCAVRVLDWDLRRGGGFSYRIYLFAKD
smiles,measurement,value
C[S+](CC[C@H](N)C(=O)O)C[C@H]1O[C@@H](n2cnc3c(N)ncnc32)[C@H](O)[C@@H]1O (stereo partly shown) [S-adenosyl methionine],"coupled colorimetric SAM methyltransferase assay, 510 nm",Rv1523 MTase was able to transfer methyl group from SAM to the cell wall component
